PMC10946275, “New imidazole-2-thiones linked to acenaphythylenone as dual DNA intercalators and topoisomerase II inhibitors: structural optimization, docking, and apoptosis studies” (Journal of Enzyme Inhibition and Medicinal Chemistry, 2024)
pIC50: −log10 of the molar value. Values joined by “and” are separate entries in the source; they are usually repeats but may differ in a detail not shown here. Equal entries are not always repeated.

Experiments:
calf thymus DNA (ctDNA) = assay: Terbium (Tb3+) luminescent biosensor detection of induced DNA damage; format: biochemical; conditions: for Tb luminescence enhancement (induced DNA damage): ctDNA incubated with compound 24 h, emission 545 nm, excitation 270 nm, compared with ctDNA-Tb mixture; for Concentration at which Tb luminescence stops increasing (maximum DNA damage) / LOD (limit of detection; minimum concentration inducing detectable damage in ctDNA) / LOQ (limit of quantitation): ctDNA, 24 h incubation
From the text: Luminescence studies were accomplished in order to examine the possible DNA interaction with the studied compounds. Many luminescent biosensors are reported in literature for studying the possibility of DNA interaction with small molecules. […] Figure 5 presents a schematic diagram for the fluorometric detection of the induced DNA damage using Tb biosensor. Tb^3+ ion in the Tb luminescent probe is a trivalent lanthanide cation having low intrinsic luminescence in aqueous solutions[45]^,[46]. When Tb biosensor is added to a solution of DNA, it interacts differently with double-stranded DNA (dsDNA) and single-stranded DNA (ssDNA). With dsDNA, Tb^3+ ions are electrostatically attracted to the negatively charged phosphate backbone of the DNA. […] Therefore, the assessed compound damages dsDNA, ssDNA sites would be formed opposite to the site of damage and Tb^3+ would directly coordinate to the unpaired nucleobases in this single-stranded site.
For investigating the DNA interaction potential of the fourteen studied compounds, calf thymus DNA (ctDNA) was incubated with each compound for 24 h and then Tb was added to each mixture. Doxorubicin (DOX), a commonly used reference for DNA damaging agent was used and treated the same condition as the studied compounds. Tb luminescent intensity was measured at λmax = 545 nm after excitation at λmax = 270 nm.
Several concentrations within the range of 0.1 pM–200.0 μM of each of the studied compounds were incubated with ctDNA for 24 h. After which, Tb solution was added to aliquots of such mixtures and the luminescence intensity was recorded. Figure 7 presents Tb luminescence intensity as a function of the compound concentration for various compound/ctDNA/Tb mixtures. At minimum concentration of the studied compounds, minimum Tb luminescence was recorded. This reflects that the DNA molecule is undamaged, intact and acquiring a double helical structure. In this conformation, Tb ions are electrostatically attracted to the negatively charged DNA-phosphate backbone showing no increase in its luminescence. For solutions with higher concentrations of compounds 5b, 5h, and 5j (Figure 7a,c,and d). Tb fluorescence increased proportionally with the concentration until a concentration of 100 and 60 μM for compounds 5b, 5h, and 5j, respectively, where no further increase in the fluorescence occurs. This reflects that more DNA damage is induced with increasing concentrations of the three compounds. At concentrations higher than 100 and 60 μM for compounds 5b, 5h, and 5j, respectively, Tb luminescence remains constant at high fluorescence levels. […] Table 1 illustrates the analytical parameters elucidated as shown in Figure 7 for the quantification of the induced DNA damage by the studied compounds. The linearity parameters were calculated from the calibration curve in Figure 7-inset in order to obtain the minimum concentration of the studied compounds that would induce DNA damage.
Fluorescence measurements: Fluorescence spectra were measured between 290 and 800 nm with excitation at 270 nm of 100 µL solutions in a 1 cm path length Suprasil quartz fluorescence cuvette.
The PerkinElmer LS 55 fluorescence spectrophotometer was used to measure the fluorescence. After 24 h of incubation in buffer solution (40 mM Tris, 10 mM NaCl, pH 7.5), aliquots of each DNA-Compound mixture were combined with TbCl3 to confirm DNA damage. The final concentrations were […] ctDNA, 3 mM TbCl3, and 50 µM of each compound in buffer solution (40 mM Tris, 10 mM NaCl, pH 7.5). Calf thymus DNA (ctDNA) was combined with various quantities of each substance, ranging from 0.1 pM to 200 µM, for the experiment. The ultimate concentrations of […] ctDNA and 3 mM were achieved by adding Tb3 + solution to the ctDNA/compound combinations in buffer solution (40 mM Tris, 10 mM NaCl, pH 7.5) after 24 h of incubation.[44]
All chemicals, solvents, media and kits were purchased from commercial suppliers. […]

[1] = system: hepatocellular carcinoma (HepG2); assay: MTT cytotoxicity assay, HepG2; format: cell-based; conditions: Homo sapiens, 24 h treatment, read-out: IC50 against HepG2
Method: (§1) (Supplementary file). Compounds 5b and 5h were screened for their effects on the normal breast cell line MCF‐10a. Cells at a density of 1 × 104 were seeded in a 96‐well plate at 37 °C for 48 h under 5% CO2. After incubation, the cells were treated with different concentrations of the prepared molecules and incubated for 24 h. MTT dye was added after 24 h of drug treatment and incubated for 4 h at 37 °C. Also, 100 μl of dimethyl sulphoxide was added to each well to dissolve the purple formazan formed. The colour intensity of the formazan product, which represents the growth condition of the cells, was quantified using an enzyme‐linked immunosorbent assay (ELISA) plate reader at 570 nm. The experiments were carried out with at least three replicates and they were repeated at least three times.
(§2) All chemicals, solvents, media and kits were purchased from commercial suppliers.
(§3) In vitro anticancer screening […]
(§4) against three cancer cell lines namely: hepatocellular carcinoma (HepG2), human breast adenocarcinoma (MCF-7) and human colon cancer (HCT -116) utilizing MTT assay2. Compounds […]
(§5) 5b and 5h were screened for their effects on the normal breast cell line MCF‐10a. Cells at a density of 1 × 104 were seeded in a 96‐well plate at 37°C for 48 hr under 5% CO2. After incubation, the cells were treated with different concentrations of the prepared molecules and incubated for 24 hr.
(§6) MTT dye was added after 24 h of drug treatment and incubated for 4 h at 37°C. Also, 100 μl of dimethyl sulphoxide was added to each well to dissolve the purple formazan formed. The color intensity of the formazan product, which represents the growth condition of the cells, was quantified using an enzyme‐linked immunosorbent assay (ELISA) plate reader at 570 nm. The experiments were carried out with at least three replicates and they were repeated at least three […]
(§7) *: Statistically significant at p ≤ 0.05
(§8) Means with any Common letter (a-e) are not significant (OR Means with totally Different letters (a-e) are significant)

[2] = system: human breast adenocarcinoma (MCF-7); assay: MTT cytotoxicity assay, MCF-7; format: cell-based; conditions: for pIC50: Homo sapiens, MCF7, MTT, 24 h treatment, read-out: IC50 against MCF-7; for folds more active than doxorubicin: MCF-7; for Selectivity Index (SI): against MCF-7, relative to normal MCF-10a
Method: as §1, §2, §3, §4, §5, §6, §7, §8

[3] = system: human colon cancer (HCT-116); assay: MTT cytotoxicity assay, HCT-116; format: cell-based; conditions: 24 h treatment, read-out: IC50 against HCT-116
Method: as §2, §3, §4, §5, §6, §7, §8

[4] = system: normal breast cell line (MCF-10a); assay: MTT cytotoxicity assay, normal breast cell line MCF-10a; format: cell-based; conditions: Homo sapiens, 24 h treatment, read-out: IC50 against MCF-10a (normal cell)
Method: as §1, §5, §6, §7
Means with any Common letter (a-e) are not significant (OR Means with totally Different letters (a-e) are significant) Annexin V-FITC/PI Apoptosis Induction Analysis 3
Apoptosis detection in MCf-7 cells was assessed using BioVision® annexin‐V‐FITC apoptosis detection kit according to the manufacturer's instructions and quantified by flow cytometry at 488

MCF-7 cells [5] = assay: Annexin V-FITC/PI apoptosis induction analysis (flow cytometry); format: cell-based, human; conditions: MCF-7, compound at its IC50, 24 h
MCF-7 cells [6] = assay: Cell cycle analysis (DNA flow cytometry, PI); conditions: for Phase of cell cycle arrest: MCF-7, compound at its IC50; for Cell cycle arrest (%) G0-G1 / Cell cycle arrest (%) G2/M / Cell cycle arrest (%) S: MCF-7, compound at its IC50, 24 h
Method: Cell cycle analysis: A FACS Calibur flow cytometer was used to measure the amount of DNA in the cell cycle analysis at 488 nm in accordance with the manufacturer’s recommendations. […] Cells were treated, rinsed twice, and then re-suspended in ice-cold PBS (phosphate buffer saline). After washing, 0.7 ml of 100% ethanol was added, and the mixture was then allowed to sit at 20 °C for 20 min. After washing, 500 μl of RNase was added, and then the mixture was incubated for 30 min. After that, PI was added, and the mixture was incubated without light for 30 min[22]^,[51].
3 Replica for each group Data was expressed using Mean ± SEM.
F: F for One way ANOVA test, Pairwise comparison bet. each 2 groups was done using Post Hoc Test (Tukey)
p: p value for comparing between the studied groups
p0: p value for comparing between Control and each other group
p1: p value for comparing between 5h and 5b
p2: p value for comparing between 5h and Dox
p3: p value for comparing between 5b and Dox
DNA content in the cell cycle analysis was quantified with the help ofa FACS Calibur flow
cytometer at 488 nm according to the manufacturer's instructions. Briefly, 2 × 10^5 cells/well were
cells were washed two times and resuspended in ice-cold phosphate buffer saline PBS. After
washing, 0.7 ml absolute ethanol was then added, followed by incubation at −20°C for 20 min.
After washing, 500 μl RNase was added, followed by incubation for 30 min. PI was then added,
followed by incubation for 30 min (light was avoided).

[7] = biological target: T1, human DNA topoisomerase II-β (TOPII-β) (Homo sapiens, UniProt Q02880); assay: In vitro topoisomerase II inhibitory assay (ELISA kit); format: biochemical; conditions: ELISA kit MBS#942146; read-out: IC50 against topo II enzyme
T1 construct: own knowledge) MBS#942146
From the text: Doxorubicin was used as a positive control. […] (Supplementary file).
SEM: Standard error of mean
as §7
Means with any Common letter (a-d) are not significant (OR Means with totally Different letters (a-d) are significant)
Doxorubicin was used as a positive control.

T1 sequence (Q02880 whole entry): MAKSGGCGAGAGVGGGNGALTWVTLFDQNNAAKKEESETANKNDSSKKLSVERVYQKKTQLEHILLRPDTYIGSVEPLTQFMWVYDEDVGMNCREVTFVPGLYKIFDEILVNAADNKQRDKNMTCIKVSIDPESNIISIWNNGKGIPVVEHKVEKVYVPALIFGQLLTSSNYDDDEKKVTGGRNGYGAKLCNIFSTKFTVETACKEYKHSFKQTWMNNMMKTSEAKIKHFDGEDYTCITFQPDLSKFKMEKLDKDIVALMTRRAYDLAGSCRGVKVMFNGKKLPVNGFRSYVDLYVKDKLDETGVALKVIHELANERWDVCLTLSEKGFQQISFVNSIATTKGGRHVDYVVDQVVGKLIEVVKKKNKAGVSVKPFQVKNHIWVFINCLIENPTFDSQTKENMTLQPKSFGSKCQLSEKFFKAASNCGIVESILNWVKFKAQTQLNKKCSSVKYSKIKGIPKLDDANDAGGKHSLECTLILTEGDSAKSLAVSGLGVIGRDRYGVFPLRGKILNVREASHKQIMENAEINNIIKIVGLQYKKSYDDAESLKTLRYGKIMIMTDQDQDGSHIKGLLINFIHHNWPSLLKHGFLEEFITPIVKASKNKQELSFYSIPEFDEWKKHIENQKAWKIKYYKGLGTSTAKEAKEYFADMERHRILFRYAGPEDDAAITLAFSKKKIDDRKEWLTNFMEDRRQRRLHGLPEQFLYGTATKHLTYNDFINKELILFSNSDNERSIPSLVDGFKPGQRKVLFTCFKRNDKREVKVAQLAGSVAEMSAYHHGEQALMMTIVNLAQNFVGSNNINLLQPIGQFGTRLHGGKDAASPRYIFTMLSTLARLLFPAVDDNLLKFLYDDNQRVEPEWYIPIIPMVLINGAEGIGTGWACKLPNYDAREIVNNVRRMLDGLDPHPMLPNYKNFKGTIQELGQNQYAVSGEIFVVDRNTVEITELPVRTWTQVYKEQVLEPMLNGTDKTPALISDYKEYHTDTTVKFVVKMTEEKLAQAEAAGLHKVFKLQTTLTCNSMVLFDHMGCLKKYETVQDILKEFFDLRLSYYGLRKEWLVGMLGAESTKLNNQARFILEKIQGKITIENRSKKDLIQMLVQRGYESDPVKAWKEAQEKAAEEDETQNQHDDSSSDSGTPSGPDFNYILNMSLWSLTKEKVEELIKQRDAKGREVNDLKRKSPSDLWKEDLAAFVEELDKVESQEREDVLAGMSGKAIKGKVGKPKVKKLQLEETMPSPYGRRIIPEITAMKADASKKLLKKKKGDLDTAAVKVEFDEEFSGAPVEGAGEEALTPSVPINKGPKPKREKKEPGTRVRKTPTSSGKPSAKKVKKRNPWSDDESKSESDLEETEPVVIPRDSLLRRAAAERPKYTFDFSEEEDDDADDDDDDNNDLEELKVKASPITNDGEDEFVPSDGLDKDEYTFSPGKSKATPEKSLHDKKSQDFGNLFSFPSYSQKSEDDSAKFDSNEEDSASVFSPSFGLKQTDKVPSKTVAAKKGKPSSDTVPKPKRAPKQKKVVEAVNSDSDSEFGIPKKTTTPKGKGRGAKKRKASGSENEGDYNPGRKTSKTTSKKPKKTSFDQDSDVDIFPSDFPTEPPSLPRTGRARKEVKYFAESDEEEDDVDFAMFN

## O=C1C(=Nn2cc(-c3ccccc3)n(-c3ccccc3)c2=S)c2cccc3cccc1c23 [5b, 2-((3,4-Diphenyl-2-thioxo-2,3-dihydro-1H-imidazol-1-yl)imino)acenaphthylen-1(2H)-one]
Calf thymus DNA (ctDNA)
  Tb luminescence enhancement (induced DNA damage): significant enhancement
  Concentration at which Tb luminescence stops increasing (maximum DNA damage): 100 µM
  LOD (limit of detection; minimum concentration inducing detectable damage in ctDNA): 7.78 nM
  LOQ (limit of quantitation): 25.9 nM
[1]
  pIC50: 5.13
[2]
  pIC50: 5.29
  folds more active than doxorubicin: 1.5 folds
  Selectivity Index (SI): 17.58
[3]
  pIC50: 4.77
[4]
  pIC50: 4.05
MCF-7 cells [5]
  Apoptosis results: Early apoptosis: 15.3 ± 0.50%
  Apoptosis results: Late apoptosis: 22.7 ± 0.43% and 22.69%
  Apoptosis results: Necrosis: 8.7 ± 0.44%
  Apoptosis results: Total: 46.6 ± 0.57%
other
  melting point: 240 to 242 °C
MCF-7 cells [6]
  Phase of cell cycle arrest: S phase
  Cell cycle arrest (%) G0-G1: 52.7 ± 0.30%
  Cell cycle arrest (%) G2/M: 13.4 ± 0.41%
  Cell cycle arrest (%) S: 33.8 ± 0.70%

## O=C1C(=Nn2cc(-c3ccc(Cl)cc3)n(-c3ccccc3)c2=S)c2cccc3cccc1c23 [5h, 2-((4-(4-chlorophenyl)-3-phenyl-2-thioxo-2,3-dihydro-1H-imidazol-1-yl)imino)-acenaphthylen-1(2H)-one]
Calf thymus DNA (ctDNA)
  Tb luminescence enhancement (induced DNA damage): significant enhancement
  Concentration at which Tb luminescence stops increasing (maximum DNA damage): 100 µM
  LOD (limit of detection; minimum concentration inducing detectable damage in ctDNA): 7.14 nM
  LOQ (limit of quantitation): 23.8 nM
[1]
  pIC50: 5.31
[2]
  pIC50: 5.58
  folds more active than doxorubicin: 3 folds
  Selectivity Index (SI): 49.27
[3]
  pIC50: 4.36
[4]
  pIC50: 3.88
MCF-7 cells [5]
  Apoptosis results: Early apoptosis: 16.5 ± 0.64%
  Apoptosis results: Late apoptosis: 28.4 ± 0.62% and 28.52%
  Apoptosis results: Necrosis: 7.5 ± 0.68%
  Apoptosis results: Total: 52.5 ± 0.68%
[7]
  pIC50: 6.47
other
  melting point: 260 to 262 °C
MCF-7 cells [6]
  Phase of cell cycle arrest: S phase
  Cell cycle arrest (%) G0-G1: 48.6 ± 0.73%
  Cell cycle arrest (%) G2/M: 9.7 ± 0.36%
  Cell cycle arrest (%) S: 41.7 ± 0.39%
